Reference: PMC4120060 (Psychoneuroendocrinology, 2014)

Tests used:
[1] = in vivo; cited from earlier work
[2] = ref Mens et al., 1983; cited from earlier work
[3] = in vivo; cited from earlier work; remark: listed apart in the source
[4] = humans; four-fold lower intramuscular dose; ref Landgraf, 1985; cited from earlier work
[5] = Plasma OT concentration after OT administration; type: in vivo, rhesus monkeys (Macaca mulatta)
[6] = Lumbar CSF OT concentration after OT administration; conditions: N=6

Row | Compound | CSF concentration of the peptide after nasal delivery [1] | half-life of OT in the blood [2] | passive diffusion of peptide from the plasma to the CSF [3] | plasma OT concentration, intramuscular relative to nasal administration [4] [fold] | increase in plasma OT after IV-OT, 15 min ([5]; IV bolus 48 IU Syntocinon, 15 min after administration, N=6, RIA) | increase in plasma OT after IV-OT, 60 min ([5]; IV bolus 48 IU Syntocinon, 60 min after administration, N=6, RIA) | plasma OT above baseline after IV-OT, 120 min ([5]; IV bolus 48 IU Syntocinon, 120 min after administration, N=6, RIA) [times] | plasma OT after IN-OT versus placebo ([5]; intranasal spray 24 IU Syntocinon vs placebo, 60 and 120 min, N=6) | increase in plasma OT over baseline after IN-OT ([5]; intranasal spray 24 IU Syntocinon, 60 and 120 min, N=6, RIA) [fold] | CSF OT concentrations after IN-OT spray versus placebo/saline [1] | lumbar CSF OT after IV-OT ([6]; IV 48 IU Syntocinon vs placebo, 0, 60, 120 min) | lumbar CSF OT after IN-OT ([6]; intranasal spray 24 IU Syntocinon vs placebo, 0, 60, 120 min)
1 | α-melanocyte stimulating hormone | increased concentrations in cerebrospinal fluid (CSF) over baseline levels |  |  |  |  |  |  |  |  |  |  | 
2 | CC[C@H](C)[C@@H]1NC(=O)[C@H](Cc2ccc(O)cc2)NC(=O)[C@@H](N)CSSC[C@@H](C(=O)N2CCC[C@H]2C(=O)N[C@@H](CC(C)C)C(=O)NCC(N)=O)NC(=O)[C@H](CC(N)=O)NC(=O)[C@H](CCC(N)=O)NC1=O [OT, oxytocin] |  | approximately 2 minutes | ~ 1% | 10 | thousand fold increase | hundred fold increase | 100 | significantly increased plasma levels of OT | 100 | higher | no impact on lumbar CSF concentrations | No significant effect
